Results on two compounds are retold here after PMC3722118, “Hellebrin and its aglycone form hellebrigenin display similar in vitro growth inhibitory effects in cancer cells and binding profiles to the alpha subunits of the Na^+/K^+-ATPase” (Molecular Cancer, 2013).

The structures appear in SMILES notation. Like-named read-outs stand apart in the source and are kept apart here. Bounds are passed on as bounds.

The test system of one data set is A549 NSCLC cells. In words: MTT colorimetric in vitro growth inhibition assay. The data set is classed as cell-based, human. The settings on record: read-out: IC50 (nM) A549. In a few lines:
(§1)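 RPMI + 10% heat-inactivated FCS, 4 mM glutamine, gentamicin/penicillin/streptomycin. Readout: MTT → formazan, spectrophotometric OD, treated vs control. n = 6 replicates/condition.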

The test system of a further data set is Hs683 glioma cells. In words: MTT colorimetric in vitro growth inhibition assay. The data set is classed as cell-based, human. As to conditions: read-out: IC50 (nM) Hs683. In outline: as §1
Data set [1] deals with MCF-7 breast cancer cells. In words: MTT colorimetric in vitro growth inhibition assay. The data set is classed as cell-based, human. The settings on record: read-out: IC50 (nM) MCF-7. In outline:
as §1

The test system of another data set is U373 glioma cells. The data set is described as follows: MTT colorimetric in vitro growth inhibition assay. Type of data set: cell-based, human. The settings on record: read-out: IC50 (nM) U373. In outline: as §1
Data set [2] has as its system human cancer cells (A549, U373, Hs683, T98G, MCF-7, SKMEL-28, PC-3, HT-29). In words: MTT growth inhibition, mean over the eight human cancer cell lines. Type of data set: cell-based. The settings on record: read-out: IC50 (nM) Mean ± SEM. In a few lines: as §1
Another data set concerns NHDF fibroblasts. In words: MTT growth inhibition in non-cancerous control cell line. Type of data set: cell-based. As to conditions: normal human fibroblasts, read-out: in vitro growth inhibitory effects (IC50) in NHDF fibroblasts. An excerpt: The histological types and origins of the eight human cancer cell lines that were used for the MTT colorimetric assay are detailed in the legend of Table 1. Two mouse cancer cell lines were also used, the CT26.WT colon cancer cell line (ATCC code CRL-2638) and the B16F10 melanoma cell line (ATCC code CRL-6475). Both cell lines were obtained from the American Type Culture Collection (ATCC, Manassas, VA). A control cell line (human NHDF fibroblasts) was obtained from PromoCell (code c-12300; Heidelberg, Germany). The cell lines detailed in Figure 2A are a generous gift from the National Cancer Institute (NCI, Bethesda, USA) to Steven Karlish’s lab.
The cancer cells were cultured in RPMI (Lonza, Verviers, Belgium) medium supplemented with 10% heat-inactivated fetal calf serum (Lonza). All culture media were supplemented with 4 mM glutamine, 100 μg/mL gentamicin, 200 U/mL penicillin and 200 μg/mL streptomycin (Lonza). The NHDF fibroblasts were cultured in Lonza medium cc3132 KT FGM-2 BulletKit.
The overall growth level of the human cancer cell lines was determined using a colorimetric MTT (3-(4,5-dimethylthiazol-2yl)-2,5-diphenyltetrazolium bromide, Sigma, Belgium) assay as detailed previously. Briefly, this test measures the number of metabolically active (thus living) cells that are able to transform the yellow MTT into the blue formazan dye via a mitochondrial reduction involving succinate dehydrogenase. The amount of formazan obtained at the end of the experiment (measured by spectrophotometry) is directly proportional to the number of living cells. The determination of the optical density in the control compared to the treated cells therefore enables quantitative measurements of the effects of compounds on the growth of normal as well as cancer cells in vitro.
Each experimental condition was performed in six replicates.

A further data set deals with U373 GBM cells. As to conditions: 10 nM. How it is done: Computer-assisted phase contrast microscopy (quantitative videomicroscopy) analyses were used to morphologically visualize the effects induced by hellebrin (data not shown) and hellebrigenin (Figure 5) in human U373 GBM cells.
Figure 5 Computer-assisted phase-contrast microscopy (quantitative videomicroscopy) illustrations of human U373 glioblastoma cells treated with 10 nM hellebrigenin for 72 h. […] Cells were not starved during the experiments. The images provided here are representative images obtained from triplicates in each experimental condition.

The subject of data set [3] is HCT-116 p53/wt and HCT-116 p53/ko colon carcinoma cells. The data set is described as follows: MTT viability, p53 wild-type versus knock-out model. The data set is classed as cell-based, human. The settings on record: 72 hours. An excerpt:
(§2) The following human cancer cell lines and their chemoresistant sublines were used in this study: the colon carcinoma cell line HCT-116 p53/wt and the p53 knock-out cell line HCT-116 p53/ko (generously donated by B. Vogelstein, Johns Hopkins University, Baltimore, MD, USA); the epidermal carcinoma-derived cell line KB-3-1 and the ABCB1-overexpressing subline KB-C-1 (generously donated by D.W. Shen, Bethesda, USA); the small cell lung carcinoma cell line GLC-4 and the ABCC1- and LRP-overexpressing subline GLC-4/ADR (from E.G. de Vries, Groningen, Netherlands); the ovarian carcinoma cell line A2780 and the cisplatin resistant subline A2780cis (purchased from Sigma-Aldrich); and the promyelocytic leukemia cell line HL60 and the mitoxantrone resistant subline HL60/mx (generously donated by G. Harker, Salt Lake City, USA). All cell lines were grown in RPMI 1640 supplemented with 10% fetal bovine serum with the exception of the HCT-116 cells, which were grown in McCoy’s medium with 10% serum.
(§3) Figure 4 Impact of different MDR mechanisms on the cytotoxicity of hellebrigenin. […] Viability was determined using a 3-(4,5-dimethythiazol-2-yl)-2,5-diphenyltetrazolium bromide (MTT) colorimetric assay. […]

In data set [4] the test system is GLC-4 and ABCC1- and LRP-overexpressing GLC-4/ADR small cell lung carcinoma cells. In words: MTT viability, MDR model. Type of data set: cell-based, human. As to conditions: 72 hours.
Source text: as §2, §3

Data set [5] concerns KB-3-1 and ABCB1-overexpressing KB-C-1 cells. In words: MTT viability, MDR model. Type of data set: cell-based, human. As to conditions: 72 hours.
Source text: as §2, §3

In the next data set the test system is HT-29 colon cancer cells. The data set is described as follows: O2 consumption rate (MitoXpress assay). Type of data set: cell-based, human. As to conditions: compounds at their IC50 (MTT), 24 h. How it is done: For enzymatic determination of lactate production, confluent tumor cells were incubated with 10 mM glucose for 24 hours. Culture medium was then filtered through centrifugation columns with a 10 KDa cutoff, and L-lactate concentrations were determined on an ISCUSflex analyzer (CMA Microdialysis AB, Solna, Sweden). O2 consumption was determined using the MitoXpress assay according to the manufacturer’s instructions (LuxCell Biosciences, Cork, Ireland). Briefly, after adding the oxygen probe to tumor cells cultured for 24 hours in 96-well microplates with or without the tested compounds, the wells were sealed with mineral oil, and respiration was evaluated using time-resolved fluorescent plate readers. Under these conditions, O2 depletion was translated into an increase in probe phosphorescence signal, and the slope of this signal was used to derive the O2 consumption rate.
Figure 6 Metabolic profiling of human HT29 colon cancer cells treated with cardiotonic steroids. A: Extracellular lactate concentrations and B: O2 consumption rates in HT29 cancer cells treated with the indicated compounds at their IC50in vitro growth inhibitory concentrations (see Table 1). The data (mean ± SEM from triplicates) are expressed in mM lactate accumulated in the extracellular medium after 24 hours and arbitrary units derived from time-resolved fluorescent signal.min^-1.

The mark [6] stands for this setting: three days of culture, * three independent experiments, ** one experiment, six replicates.

With `C[C@]12CC[C@H]3[C@@H](CC[C@]4(O)C[C@@H](O)CC[C@]34C=O)[C@@]1(O)CC[C@@H]2c1ccc(=O)oc1` [Hellebrigenin], the IC50 was 3 ± 1 nM with A549 NSCLC cells (setting [6]); 6 ± 1 nM in the data set on Hs683 glioma cells (setting [6]); 42 ± 2 nM in [1] (setting [6]); 9 ± 1 nM with U373 glioma cells (setting [6]); 16 ± 5 nM in data set [2] (mean over eight human cancer cell lines, three days of culture); greater than 10000 nM with NHDF fibroblasts. Besides, the “U373 GBM cells died” value in the data set on U373 GBM cells (72 h of treatment) is “approximately 50%”. The “cytotoxic versus cytostatic nature (morphological analyses)” value with U373 GBM cells (up to 72 h) was “cytotoxic compound and not a cytostatic one”. Also, the “in vitro growth inhibitory activity in p53 wild-type versus p53KO HCT-116 cells” value in data set [3] is “similar”. Besides, the “sensitivity of GLC4/ADR compared to parental cell line” value in [4] is on record as “equally sensitive”. Further, the “sensitivity of KB-C-1 compared to parental cell line” value in data set [5] was “equally sensitive”.
Take `C[C@@H]1O[C@@H](O[C@H]2CC[C@]3(C=O)[C@H]4CC[C@]5(C)[C@@H](c6ccc(=O)oc6)CC[C@]5(O)[C@@H]4CC[C@]3(O)C2)[C@H](O)[C@H](O)[C@H]1O[C@@H]1O[C@H](CO)[C@@H](O)[C@H](O)[C@H]1O` [Hellebrin]: the IC50 with A549 NSCLC cells (Homo sapiens, A549, 72 h) was 6 ± 1 nM; in the data set with Hs683 glioma cells (Homo sapiens, Hs 683, 72 h), 7 ± 1 nM; in [1] (Homo sapiens, MCF7, 72 h) it was 58 ± 12 nM; with U373 glioma cells (Homo sapiens, U373 MG, 72 h), 41 ± 2 nM; in [2] (Homo sapiens, 72 h), 28 ± 7 nM; in the data set on NHDF fibroblasts (NHDF) it was greater than 10000 nM. For the same compound, the “in vitro growth inhibitory activity in p53 wild-type versus p53KO HCT-116 cells” value in data set [3] is on record as “similar”. For the same compound, the “O2 consumption rate (cell respiration)” value with HT-29 colon cancer cells is “significantly reduced”.
